Measurements taken from patent US9771369B2, “Compounds and methods for kinase modulation, and indications therefor” (Plexxikon Inc., priority 2014, dated 2017).

Biological target: c-kit mutant D816V (Homo sapiens (Human), UniProt P10721, D816V/DEL694-753)
Assay: c-Kit mutant D816V biochemical assay (AlphaScreen kinase activity)
Procedure, shortened: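 AlphaScreen with streptavidin donor and PY30 acceptor beads read phosphotyrosine on biotin-(E4Y)10 substrate (30 nM). Enzyme: E. coli-expressed N-His c-Kit D816V, residues 551-934 lacking kinase insert 694-753. Reaction 30 min at room temperature, 10 μM ATP, 5% DMSO; IC50 fitted over 8 three-fold dilutions.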

Sequence of c-kit mutant D816V (P10721 other isoform, or with tags, fused parts or gaps D816V/del 694-753): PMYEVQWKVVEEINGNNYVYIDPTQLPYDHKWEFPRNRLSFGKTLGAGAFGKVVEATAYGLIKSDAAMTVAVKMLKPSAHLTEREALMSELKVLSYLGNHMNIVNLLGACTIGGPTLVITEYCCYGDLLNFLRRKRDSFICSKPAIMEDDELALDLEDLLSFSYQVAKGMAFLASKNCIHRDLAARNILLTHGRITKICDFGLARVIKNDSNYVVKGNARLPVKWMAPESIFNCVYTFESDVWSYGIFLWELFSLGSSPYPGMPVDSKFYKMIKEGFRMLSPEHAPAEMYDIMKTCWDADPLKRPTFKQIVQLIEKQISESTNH

SMILES	IC50
CCC1(c2nc(C)c(-c3ccc(OC)c(C)c3)[nH]2)CCN(c2ncnc3[nH]c(C)cc23)CC1 [P-3141, 4-[4-ethyl-4-[5-(4-methoxy-3-methyl-phenyl)-4-methyl-1H-imidazol-2-yl]-1-piperidyl]-6-methyl-7H-pyrrolo[2,3-d]pyrimidine]	0.0001 to 1 µM
CCOc1ccc(-c2[nH]c(C3(CC)CCN(c4ncnc5[nH]c(C)cc45)CC3)nc2C)cc1C [P-3142, 4-[4-[5-(4-ethoxy-3-methyl-phenyl)-4-methyl-1H-imidazol-2-yl]-4-ethyl-1-piperidyl]-6-methyl-7H-pyrrolo[2,3-d]pyrimidine]	0.0001 to 1 µM
CCC1(c2nc(C)c(-c3ccc4c(c3)OCO4)[nH]2)CCN(c2ncnc3[nH]c(C)cc23)CC1 [P-3143, 4-[4-[5-(1,3-benzodioxol-5-yl)-4-methyl-1H-imidazol-2-yl]-4-ethyl-1-piperidyl]-6-methyl-7H-pyrrolo[2,3-d]pyrimidine]	0.0001 to 1 µM
CCC1(c2nc(C)c(-c3ccc4c(c3)OCCO4)[nH]2)CCN(c2ncnc3[nH]c(C)cc23)CC1 [P-3144, 4-[4-[5-(2,3-dihydro-1,4-benzodioxin-6-yl)-4-methyl-1H-imidazol-2-yl]-4-ethyl-1-piperidyl]-6-methyl-7H-pyrrolo[2,3-d]pyrimidine]	0.0001 to 1 µM
CCOc1ccc(-c2[nH]c(C3(CC)CCN(c4ncnc5[nH]c(C)cc45)CC3)nc2C)cc1 [P-3145, 4-[4-[5-(4-ethoxyphenyl)-4-methyl-1H-imidazol-2-yl]-4-ethyl-1-piperidyl]-6-methyl-7H-pyrrolo[2,3-d]pyrimidine]	0.0001 to 1 µM
COc1ccc(-c2[nH]c(C3CCN(c4ncnc5[nH]c(-c6ccnc(OC)c6)cc45)CC3)nc2C(F)(F)F)cc1 [P-3146, 4-[4-[5-(4-methoxyphenyl)-4-(trifluoromethyl)-1H-imidazol-2-yl]-1-piperidyl]-6-(2-methoxy-4-pyridyl)-7H-pyrrolo[2,3-d]pyrimidine]	0.0001 to 1 µM
COc1ccc(-c2[nH]c(C3CCN(c4ncnc5[nH]c(-c6ccc(C#N)cc6)cc45)CC3)nc2C(F)(F)F)cc1 [P-3148, 4-[4-[4-[5-(4-methoxyphenyl)-4-(trifluoromethyl)-1H-imidazol-2-yl]-1-piperidyl]-7H-pyrrolo[2,3-d]pyrimidin-6-yl]benzonitrile]	0.0001 to 1 µM
COc1cc(-c2cc3c(N4CCC(c5nc(C)c(-c6ccc(C(F)(F)F)cc6)[nH]5)CC4)ncnc3[nH]2)ccn1 [P-3149, 6-(2-methoxy-4-pyridyl)-4-[4-[4-methyl-5-[4-(trifluoromethyl)phenyl]-1H-imidazol-2-yl]-1-piperidyl]-7H-pyrrolo[2,3-d]pyrimidine]	0.0001 to 1 µM
Cc1cc2c(N3CCC(C)(c4nc(C)c(-c5ccc6c(c5)OCO6)[nH]4)CC3)ncnc2[nH]1 [P-3150, 4-[4-[5-(1,3-benzodioxol-5-yl)-4-methyl-1H-imidazol-2-yl]-4-methyl-1-piperidyl]-6-methyl-7H-pyrrolo[2,3-d]pyrimidine]	0.0001 to 1 µM
Cc1cc2c(N3CCC(C)(c4nc(C)c(-c5ccc6c(c5)OCCO6)[nH]4)CC3)ncnc2[nH]1 [P-3151, 4-[4-[5-(2,3-dihydro-1,4-benzodioxin-6-yl)-4-methyl-1H-imidazol-2-yl]-4-methyl-1-piperidyl]-6-methyl-7H-pyrrolo[2,3-d]pyrimidine]	0.0001 to 1 µM
Cc1cc2c(N3CCC(C)(c4nc(C)c(-c5ccc6c(c5)OC(F)(F)O6)[nH]4)CC3)ncnc2[nH]1 [P-3152, 4-[4-[5-(2,2-difluoro-1,3-benzodioxol-5-yl)-4-methyl-1H-imidazol-2-yl]-4-methyl-1-piperidyl]-6-methyl-7H-pyrrolo[2,3-d]pyrimidine]	0.0001 to 1 µM
COc1ccc(-c2[nH]c(C3(C)CCN(c4ncnc5[nH]c(-c6cnn(C(F)F)c6)cc45)CC3)nc2C)cc1 [P-3153, 6-[1-(difluoromethyl)pyrazol-4-yl]-4-[4-[5-(4-methoxyphenyl)-4-methyl-1H-imidazol-2-yl]-4-methyl-1-piperidyl]-7H-pyrrolo[2,3-d]pyrimidine]	0.0001 to 1 µM
